The source of these data is PMC9481570, “A small molecule antagonist of SMN disrupts the interaction between SMN and RNAP II” (Nature Communications, 2022).

“And” between values parts separate entries of the source, which are not always exact repeats. Equal entries are not always repeated.

For the test, the target named is T1, UHRF1 tandem Tudor domain (TTD) (Homo sapiens, UniProt Q96T88).
T1 construct: UHRF1 (aa 126–285); His (N, cleaved yes); made in house; host or cells: E. coli BL21 (DE3) Codon plus RIL
T1 sequence (Q96T88 126-285): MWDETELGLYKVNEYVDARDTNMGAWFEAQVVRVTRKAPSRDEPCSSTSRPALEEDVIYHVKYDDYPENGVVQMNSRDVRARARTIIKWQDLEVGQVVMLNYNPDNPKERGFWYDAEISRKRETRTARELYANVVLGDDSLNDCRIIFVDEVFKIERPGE
The experiment in a line: ITC binding to tandem Tudor domain of UHRF1. An excerpt: The coding DNA fragments of following Tudor domains were cloned into pET28-MHL vector: SMN (aa 82–147), UHRF1 (aa 126–285), SMNDC1 (aa 53–130), TDRD3 (aa 554–611), SND1 (aa 650–910), TDRD2 (aa 327–420), FXR1 (aa 2–132), PHF1 (aa 28–87), SGF29 (aa 115–293), JMJD2A (aa 897–1101), 53BP1 (aa 1483–1606), SETDB1 (aa 190–410), LBR (aa 1–67), ZGPAT (aa 120–271). The coding regions of chromodomain of CBX7 (aa 8–62), PWWP domain of DNMT3A (aa 275–417), WD40 repeats of WDR5 (aa 24–334) and CW domain of ZCWPW2 (aa 21–78) were also subcloned into pET28-MHL vector to generate N-terminally His-tagged fusion protein. The MBT repeats of L3MBTL1 (aa 200–522) and L3MBTL2 (aa 170–625) were subcloned into pET28GST-LIC vector to generate N-terminally GST-His-tagged fusion protein. All the plasmids were generated by ligase independent cloning (Vazyme Biotech, C112 or ABclonal Technology, RK21020). […] The proteins were further purified by Superdex75 or Superdex200 gel-filtration column (GE Healthcare) in a buffer containing 20 mM Tris-HCl, pH 7.5, 150 mM NaCl and 1 mM DTT. For crystallization experiments, purified proteins were concentrated to 18 mg/mL for SMN, 23 mg/mL for UHRF1 and 10 mg/mL for TDRD3 in the gel-filtration buffer. All the mutations were introduced with the QuikChange II XL site-directed mutagenesis kit (Stratagene, 200522) and confirmed by DNA sequencing. Mutant proteins were also expressed in E. coli BL21 (DE3) Codon plus RIL and purified using the same procedures described above. The molecular weight of all protein samples was measured by mass spectrometry.
For the ITC measurement, the concentrated proteins were diluted into 20 mM Tris-HCl, pH 7.5, 150 mM NaCl (ITC buffer); the lyophilized compounds were dissolved in the same buffer, and the pH value was adjusted by adding 2 M NaOH or 2 M HCl. The compounds that could not be dissolved in the ITC buffer were dissolved in DMSO with the accessible highest concentration. Compound concentrations were calculated from the mass and the volume of the solvent. For the ITC assay with compound dissolved in DMSO, the protein was diluted by ITC buffer containing same final concentration of DMSO. All measurements were performed in duplicate at 25 °C, using a VP-ITC (MicroCal, Inc.), an iTC-200 (MicroCal, Inc.), or a Nano-ITC (TA, Inc.) microcalorimeter. The protein with a concentration of 50–100 μM was placed in the cell chamber, and the compounds with a concentration of 0.5–2 mM in syringe was injected in 25, 20, or 20 successive injections with a spacing of 180, 150, or 120 s for VP-ITC, iTC-200, or Nano-ITC, respectively, as previously described[30]–[32]. iTC-200 or Nano-ITC data were consistent with those from the VP-ITC instrument, based on ITC results of SMN-compound 1 detected by using all the instruments. Control experiments were performed under identical conditions to determine the heat signals that arise from injection of the compounds into the buffer. Data were fitted using the single-site binding model within the Origin software 7.0 package (MicroCal, Inc.) or the independent model within the Nano-Analyze software package (TA, Inc.).

For the compound `Cn1c2c(c(=N)c3c1CCC3)CCC2` [Compound 1, 4-methyl-2,3,4,5,6,7-hexahydrodicyclopenta[b,e]pyridin-8(1H)-imine], the Kd – broadly, the equilibrium constant for the complex coming apart – was ~16 µM and 16 µM.
`CCCn1c2c(c(=N)c3c1CCC3)CCC2` [Compound 2, 4-propyl-2,3,4,5,6,7-hexahydrodicyclopenta[b,e]pyridin-8(1H)-imine]: the “Kd (UHRF1)” value is given as “No binding”.
